Assay results taken from patent US20020002269A1, “ARTEMIN, A NEUROTROPHIC FACTOR” (priority 1998, published 2002).

Columns and labels:
[1] = tested on: SH-SY5Y neuroblastoma cell line; experiment: Differentiation of SH-SY5Y neuroblastoma cells; format: cell-based; conditions: 50 ng/ml, three days after factor addition, FIG. 8C
Description: In one experiment, cells from the SH-SY5Y neuroblastoma cell line were plated at 2×10^5 cells/ml/well in 12-well tissue culture plates. After one day in culture cells were either left untreated (Cn) or stimulated with 50 ng/ml artemin (ART) or 10 μM retinoic acid (RA), a known inducer of differentiation of SH-SYSY cells. Three days after factor addition, differentiation was assessed and cells were photographed.

[2] = tested on: NLF cells transformed with GFRα2; experiment: Ga14-Elk/Ga14-Luc reporter in NLF neuroblastoma cells transformed with GFRα2; format: cell-based; conditions: factor for 24 hours, low-serum medium, FIG. 10B
Description: Thus, to directly test which receptor combinations can form functional receptors for artemin, expression plasmids for the individual GFRA coreceptors together with the Ga14-Elk/Ga14-Luc reporter system were transiently transformed into fibroblasts that stably express RET. […]
NLF neuroblastoma cells, which naturally express GFRα2/RET (Tansey et al., submitted), or the RET-3T3 cells were plated at 85,000 cells/well in 12-well plates, and cotransfected with the reporter plasmids Ga14-Luc and CMV-Ga14-Elk (250 ng/well and 50 ng/well, respectively), CMV-lacZ (50 ng/well) for transfection normalization, one of the CMV-GFRA expression plasmids (500 ng/well), and pBluescript (650 ng/well) as carrier for a total of 1.5 μg DNA/well using the Superfect reagent (Qiagen) according to the manufacturer's instructions. […] Measurement of luciferase and β-galactosidase activity was measured using a luminometer and performed as described (Svaren et al., EMBO J 17:6010-6019, 1998). The average luciferase activity of duplicate samples was normalized to β-galactosidase activity of the cotransformed lacZ reporter, and fold activation was calculated by dividing the normalized activity in factor-treated cells by that in the no treatment control.

[3] = tested on: dopaminergic neurons from the rat embryonic ventral midbrain; experiment: Survival of TH+ dopaminergic ventral midbrain neurons; format: cell-based; conditions: E14 rat, 50 ng/ml, 3 days in culture, FIG. 7F
Description: Embryonic day 14 ventral mesencephalon cultures were prepared by removing the entire mesencephalon into cold Leibovitz's L15+6 mg/ml glucose and dissecting the tissue while keeping it on ice. Following dissection, the tissue was digested in a mixture of dispase (1 mg/ml, Sigma) and collagenase (1 mg/ml, Worthington Biochemical) for 25 min. Tissue was then washed twice with modified N2 media and triturated 35 times. Cell density and viability was assessed using a hemocytometer to count trypan blue excluding cells. Cells were plated at 20,000 cells/well on 8-well chamber slides (coated with 125 ng/ml poly-D-lysine and 25 ng/ml laminin) in serum-free medium consisting of DME/Hams F12 (1:1), 1 mg/ml BSA, 5 μM insulin, 10 nM progesterone, 100 μM putrescine, 30 nM selenium, 10 ng/ml rat transferrin, 100 U/ml penicillin, 100 U/ml streptomycin. Factors were added within 15 min of plating. After 3 days in culture, the cells were fixed, stained for tyrosine hydroxylase, and the number of tyrosine hydroxylase staining (TH+) neurons were counted. The results from two independent experiments are shown in FIG. 7F as the percentage of surviving TH+ neurons over control.

[4] = tested on: superior cervical ganglion (SCG) neurons; experiment: Survival of cultured superior cervical ganglion neurons after NGF withdrawal; format: cell-based, rat; conditions: 50 ng/ml, FIG. 7E
Description: Each GDNF ligand family member consisted of the human mature amino acid sequence and was produced by standard recombinant DNA methods. Recombinant GDNF, neurturin and persephin were obtained from Genentech while recombinant artemin was produced as described in Example 3.
The cultures were performed using standard methods described elsewhere (Kotzbauer et al., Neuron 12:763-773, 1994; Kotzbauer et al., Nature 384:467-470, 1996; Milbrandt et al., Neuron 20:245-253, 1998). […] Cultures were maintained for 3 days, after which they were fixed in 4% paraformaldehyde and stained with toluidine blue, and surviving neurons were counted. For nodose ganglion and dorsal root ganglion neuron cultures, dissociated neurons were plated directly into NGF (for dorsal root ganglia), or BDNF (for nodose ganglia, 100 ng/ml) or one of the GDNF ligands in serum-containing medium (AM50 with anti-NGF antibodies), and cells surviving after 3 days in culture were counted as above. Trigeminal ganglia were dissected, dissociated, and plated directly into medium containing NGF or the indicated GDNF ligands, and the number of surviving cells was assessed after 3 days in vitro. […]

**Q.** How did the “differentiation (neurite outgrowth, neuronal morphology) of SH-SY5Y cells” value [1] turn out when “artemin: recombinant mature human artemin (FIG. 3A, SEQ ID NO:3) with 8-histidine tag, produced in E. coli; GDNF family neurotrophic factor” was run?
**A.** induced strong differentiation responses

**Q.** What about the “response of NLF cells transformed with GFRα2 (luciferase reporter)” value [2] of the same substance?
**A.** not GFRα2

**Q.** What about the “survival of TH+ dopaminergic midbrain neurons” value [3] of the same substance?
**A.** supported the survival of dopaminergic midbrain neurons

**Q.** What about the “survival of SCG neurons” value ([4]; 3 days after 5 days in NGF, anti-NGF antibodies) of the same substance?
**A.** supported the survival of SCG neurons

**Q.** What about the “number of SCG neurons supported compared with GDNF or neurturin” value [4] of the same substance?
**A.** fewer neurons were supported by artemin than by GDNF or neurturin
